# Measured values reported in patent US20250019387A1 (Frontier Medicines Corporation, priority 0001, published 2025).
# Target: KRAS G12C and cRAF (Ras-binding domain) interaction (Homo sapiens (Human), UniProt P01116, C118S/C51S/C80L/G12C)
# Experiment: Inhibition of KRAS G12C and cRAF binding (AlphaScreen)
# Settings: GMPPNP-loaded KRAS G12C, 19-20 hours incubation with compound; read-out: IC50 (Inhibition of KRAS G12C and cRAF Binding)
# Summary of the method: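 IC50 values come from 4-parameter nonlinear regression of AlphaScreen signal (680 nm excitation, 570 nm emission). Compound plates sat 19-20 h at room temperature before RBD and donor/acceptor beads were added in Hepes pH 7.4 buffer with 150 mM NaCl, 5 mM MgCl2, 2% DMSO for 60-90 min; biotin-AviTag-GST replaced RBD to flag assay-technology interferers.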
# Sequence of KRAS G12C and cRAF (Ras-binding domain) interaction (P01116 other isoform, or with tags, fused parts or gaps G12C/C51S/C80L/C118S): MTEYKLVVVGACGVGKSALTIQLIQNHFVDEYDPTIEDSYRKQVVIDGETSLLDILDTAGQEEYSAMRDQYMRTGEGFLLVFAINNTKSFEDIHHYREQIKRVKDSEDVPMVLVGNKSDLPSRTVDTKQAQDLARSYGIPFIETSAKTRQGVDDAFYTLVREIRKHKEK
row,IC50 [nM],Compound
1,10 to 100,"CN(CCNC(=O)/C=C/S(C)(=O)=O)c1nc(OC[C@@H]2CCCN2C)nc2c1CCN(c1cccc3cccc(Cl)c13)C2 [Example 23, (S,E)-N-(2-((7-(8-chloronaphthalen-1-yl)-2-((1-methylpyrrolidin-2-yl)methoxy)-5,6,7,8-tetrahydropyrido[3,4-d]pyrimidin-4-yl)(methyl)amino)ethyl)-3-(methylsulfonyl)acrylamide]"
2,10 to 100,"CN(c1nc(OC[C@@]23CCCN2C[C@H](F)C3)nc2c(F)c(-c3cccc4cccc(Cl)c34)ncc12)[C@@H]1CCN(C(=O)/C=C/c2nc(C3CCC3)no2)C1 [Example 111, (E)-1-((R)-3-((7-(8-chloronaphthalen-1-yl)-8-fluoro-2-(((2R,7aS)-2-fluorohexahydro-1H-pyrrolizin-7a-yl)methoxy)pyrido[4,3-d]pyrimidin-4-yl)(methyl)amino)pyrrolidin-1-yl)-3-(3-cyclobutyl-1,2,4-oxadiazol-5-yl)prop-2-en-1-one]"
3,100 to 500,"CN(c1nc(OC[C@@H]2CCCN2C)nc2c1CCN(c1cccc3cccc(Cl)c13)C2)C1CCN(C#N)C1 (stereo partly drawn) [Example 29, 3-((7-(8-chloronaphthalen-1-yl)-2-(((S)-1-methylpyrrolidin-2-yl)methoxy)-5,6,7,8-tetrahydropyrido[3,4-d]pyrimidin-4-yl)(methyl)amino)pyrrolidine-1-carbonitrile]"
4,100 to 500,"CN(CCC1CN(C#N)C1)c1nc(OC[C@@H]2CCCN2C)nc2c1CCN(c1cccc3cccc(Cl)c13)C2 [Example 34, (S)-3-(2-((7-(8-chloronaphthalen-1-yl)-2-((l-methylpyrrolidin-2-yl)methoxy)-5,6,7,8-tetrahydropyrido[3,4-d]pyrimidin-4-yl)(methyl)amino)ethyl)azetidine-1-carbonitrile]"
5,10 to 100,"Cc1c(F)ccc2cccc(-c3ncc4c(N(C)[C@@H]5CCN(C(=O)/C=C/[C@H]6CCN6C)C5)nc(OC[C@@]56CCCN5C[C@H](F)C6)nc4c3F)c12 [Example 206, (E)-1-((R)-3-((8-fluoro-7-(7-fluoro-8-methylnaphthalen-1-yl)-2-(((2R,7aS)-2-fluorotetrahydro-1H-pyrrolizin-7a(5H)-yl)methoxy)pyrido[4,3-d]pyrimidin-4-yl)(methyl)amino)pyrrolidin-1-yl)-3-((R)-1-methylazetidin-2-yl)prop-2-en-1-one]"
6,10 to 100,"Cc1nccc(/C=C/C(=O)N2CC[C@@H](N(C)c3nc(OC[C@@]45CCCN4C[C@H](F)C5)nc4c(F)c(-c5cccc6ccc(F)c(Cl)c56)ncc34)C2)n1 [Example 270, (E)-1-((R)-3-((7-(8-chloro-7-fluoronaphthalen-1-yl)-8-fluoro-2-(((2R,7aS)-2-fluorotetrahydro-1H-pyrrolizin-7a(5H)-yl)methoxy)pyrido[4,3-d]pyrimidin-4-yl)(methyl)amino)pyrrolidin-1-yl)-3-(2-methylpyrimidin-4-yl)prop-2-en-1-one]"
7,100 to 500,"C=CS(=O)(=O)[C@H]1C[C@H](N(C)c2nc(OC[C@@H]3CCCN3C)nc3c2CCN(c2cccc4cccc(Cl)c24)C3)C1 [Example 48, 7-(8-chloronaphthalen-1-yl)-N-methyl-2-(((S)-1-methylpyrrolidin-2-yl)methoxy)-N-((1r,3S)-3-(vinylsulfonyl)cyclobutyl)-5,6,7,8-tetrahydropyrido[3,4-d]pyrimidin-4-amine]"
8,100 to 500,"CN(CC1CN(C(=O)C#CCN2CCOCC2)C1)c1nc(OC[C@@]23CCCN2C[C@H](F)C3)nc2c(F)c(-c3cccc4cccc(Cl)c34)ncc12 [Example 91, 1-(3-(((7-(8-chloronaphthalen-1-yl)-8-fluoro-2-(((2R,7aS)-2-fluorotetrahydro-1H-pyrrolizin-7a(5H)-yl)methoxy)pyrido[4,3-d]pyrimidin-4-yl)(methyl)amino)methyl)azetidin-1-yl)-4-morpholinobut-2-yn-1-one]"
9,< 10,"C[C@H](F)c1noc(/C=C/C(=O)N2CC(CN(C)c3nc(OC[C@@]45CCCN4C[C@H](F)C5)nc4c(F)c(-c5cccc6cccc(Cl)c56)ncc34)C2)n1 [Example 76, (E)-1-(3-(((7-(8-chloronaphthalen-1-yl)-8-fluoro-2-(((2R,7aS)-2-fluorotetrahydro-1H-pyrrolizin-7a(5H)-yl)methoxy)pyrido[4,3-d]pyrimidin-4-yl)(methyl)amino)methyl)azetidin-1-yl)-3-(3-((S)-1-fluoroethyl)-1,2,4-oxadiazol-5-yl)prop-2-en-1-one]"
10,10 to 100,"C#Cc1c(F)ccc2cccc(-c3ncc4c(N(C)[C@@H]5CCN(C(=O)/C=C/CN6CC[C@@H](OC)C6)C5)nc(OC[C@@]56CCCN5C[C@H](F)C6)nc4c3F)c12 [Example 287, (E)-1-((R)-3-((7-(8-ethynyl-7-fluoronaphthalen-1-yl)-8-fluoro-2-(((2R,7aS)-2-fluorotetrahydro-1H-pyrrolizin-7a(5H)-yl)methoxy)pyrido[4,3-d]pyrimidin-4-yl)(methyl)amino)pyrrolidin-1-yl)-4-((R)-3-methoxypyrrolidin-1-yl)but-2-en-1-one]"
11,10 to 100,"CC(C)c1noc(/C=C/C(=O)N2CC(CN(C)c3nc(OC[C@@]45CCCN4C[C@H](F)C5)nc4c(F)c(-c5cccc6cccc(Cl)c56)ncc34)C2)n1 [Example 106, (E)-1-(3-(((7-(8-chloronaphthalen-1-yl)-8-fluoro-2-(((2R,7aS)-2-fluorotetrahydro-1H-pyrrolizin-7a(5H)-yl)methoxy)pyrido[4,3-d]pyrimidin-4-yl)(methyl)amino)methyl)azetidin-1-yl)-3-(3-isopropyl-1,2,4-oxadiazol-5-yl)prop-2-en-1-one]"
12,< 10,"C#Cc1c(F)ccc2cccc(-c3ncc4c(N(C)[C@@H]5CCN(C(=O)C=C6CN(C)C6)C5)nc(OC[C@@]56CCCN5C[C@H](F)C6)nc4c3F)c12 [Example 298, 1-((R)-3-((7-(8-ethynyl-7-fluoronaphthalen-1-yl)-8-fluoro-2-(((2R,7aS)-2-fluorotetrahydro-1H-pyrrolizin-7a(5H)-yl)methoxy)pyrido[4,3-d]pyrimidin-4-yl)(methyl)amino)pyrrolidin-1-yl)-2-(1-methylazetidin-3-ylidene)ethan-1-one]"
13,< 10,"Cc1noc(/C=C/C(=O)N2CC[C@@H](N(C)c3nc(OC[C@@]45CCCN4C[C@H](F)C5)nc4c3CCN(c3cccc5cccc(Cl)c35)C4)C2)n1 [Example 178, (E)-1-((R)-3-((7-(8-chloronaphthalen-1-yl)-2-(((2R,7aS)-2-fluorohexahydro-1H-pyrrolizin-7a-yl)methoxy)-5,6,7,8-tetrahydropyrido[3,4-d]pyrimidin-4-yl)(methyl)amino)pyrrolidin-1-yl)-3-(3-methyl-1,2,4-oxadiazol-5-yl)prop-2-en-1-one]"
14,< 10,"CN(c1nc(OC[C@@]23CCCN2C[C@H](F)C3)nc2c(F)c(-c3cccc4cccc(Cl)c34)ncc12)[C@@H]1CCN(C(=O)/C=C/c2nc(C3(C)COC3)no2)C1 [Example 95, (E)-1-((R)-3-((7-(8-chloronaphthalen-1-yl)-8-fluoro-2-(((2R,7aS)-2-fluorotetrahydro-1H-pyrrolizin-7a(5H)-yl)methoxy)pyrido[4,3-d]pyrimidin-4-yl)(methyl)amino)pyrrolidin-1-yl)-3-(3-(3-methyloxetan-3-yl)-1,2,4-oxadiazol-5-yl)prop-2-en-1-one]"

row,Compound,IC50 [nM]
1,"C#Cc1c(F)ccc2cccc(-c3ncc4c(N(C)[C@@H]5CCN(C(=O)C=C)C5)nc(OC[C@]56CCCN5C[C@H](F)C6)nc4c3F)c12 [Example 305, 1-((R)-3-((7-(8-ethynyl-7-fluoronaphthalen-1-yl)-8-fluoro-2-(((2R,7aR)-2-fluorotetrahydro-1H-pyrrolizin-7a(5H)-yl)methoxy)pyrido[4,3-d]pyrimidin-4-yl)(methyl)amino)pyrrolidin-1-yl)prop-2-en-1-one]",10 to 100

# Same assay, conditions: additional exemplary compounds; KRAS G12C and cRAF binding; read-out: RAF1 RBD IC50
row,IC50 [nM],Compound
1,100 to 500,CN(C)C/C=C/C(=O)N1CC(CN(C)c2nc(OCC34CCCN3CCC4)nc3c2CCN(c2cccc4cccc(Cl)c24)C3)C1
2,10 to 100,CN(C)C/C=C/C(=O)N1CC[C@@H](N(C)c2nc(OCC34CCCN3CCC4)nc3c2CCN(c2cccc4cccc(Cl)c24)C3)C1
3,100 to 500,CN(CC1CN(C#N)C1)c1nc(OCC23CCCN2CCC3)nc2c1CCN(c1cccc3cccc(Cl)c13)C2
4,100 to 500,C=CC(=O)CN(C)c1nc(OC[C@@H]2CCCN2C)nc2c1CCN(c1cccc3ccccc13)C2
5,> 500,CN(c1nc(OC[C@@]23CCCN2C[C@H](F)C3)nc2c1CCN(c1cccc3cccc(Cl)c13)C2)[C@@H]1CCN(C(=O)/C=C/c2ncn(C)n2)C1
6,100 to 500,C=CC(=O)N1CC(CNc2nc(OC[C@@]34CCCN3C[C@H](F)C4)nc3c(F)c(-c4cccc5cccc(Cl)c45)ncc23)C1
7,> 500,C=CC(=O)N1C[C@H](N(C)c2nc(OCC34CCCN3CCC4)nc3c(F)c(-c4cccc5cccc(Cl)c45)ncc23)C[C@H]1C
8,> 500,C=CC(=O)N1C[C@@H](C)[C@@H](N(C)c2nc(OC[C@@]34CCCN3C[C@H](F)C4)nc3c(F)c(-c4cccc5cccc(Cl)c45)ncc23)C1
9,> 500,C=CC(=O)N1CC[C@@H](C)[C@@H](Nc2nc(OC[C@@]34CCCN3C[C@H](F)C4)nc3c(F)c(-c4cccc5cccc(Cl)c45)ncc23)C1
10,> 500,C=CC(=O)N1CC[C@@H](N(C)c2nc(OC[C@@]34CCCN3C[C@H](F)C4)nc3c(F)c(-c4cccc5c(Cl)cc(F)cc45)ncc23)C1
11,> 500,CN(C)C(=O)/C=C/C(=O)N1CC[C@@H](N(C)c2nc(OCC34CCCN3CCC4)nc3c2CCN(c2cccc4cccc(Cl)c24)C3)C1
12,> 500,C=CC(=O)N1CC[C@@H]1CN(C)c1nc(OC[C@@]23CCCN2C[C@H](F)C3)nc2c1CCN(c1cccc3cccc(Cl)c13)C2
13,> 500,C=CC(=O)N1CC[C@@H](N(C)c2nc(OC[C@]34CCCN3C[C@@H](F)C4)nc3c2CCN(c2cccc4cccc(Cl)c24)C3)C1
